Reference: patent US7745152B2, “Method for determining genotoxicity” (priority 2004, dated 2010)
Values joined by “and” are separate entries in the source; they are usually repeats but may differ in a detail not shown here. Equal values may be shown once.

Tests used:
C2C12 cells [1] = assay: C2C12 myogenic differentiation after MMS exposure with siRNA transfection; settings: 75 μM MMS, 24 hours, then differentiation media, 72 hours
C2C12 cells [2] = tested on: C2C12 cells
Method: (§1) Three independent replicates were generated for each drug and time point. Sample processing was carried out according to protocols described in the Affymetrix Expression Analysis Technical Manual. Briefly, total RNA was isolated from cells by the acid guanidinium thiocyanate-phenol-chloroform extraction method (Trizol®, Invitrogen, Carlsbad, Calif.). Twice purified poly(A+) RNA was isolated and reverse transcribed using a T7-promoter coupled oligo(dT) primer, followed by in vitro transcription. The labeled samples were applied to the Affymetrix Murine Genome MOE430 set and were hybridized overnight at 45° C./60 rpm, washed using a FS450 Fluidics station, and scanned on a GS3000 scanner. The resulting image files were analyzed using Affymetrix software (Microarray Analysis Suite version 5.0).
(§2) To measure the effect of drug treatment on cellular gene expression, replicate data obtained from each drug and time point were compared with replicates for vehicle-matched controls using the Student t-test. The gene expression levels were Log transformed before applying the Student t-test. The fold change of the average expression level between the control and drug-treated cells was also calculated. […] A gene was considered expressed if the Affymetrix software determined that the gene was “present” in two out of the three replicates. This ensured that true expression changes were identified, and could be distinguished from background variability. Second, the calculated expression change for each of five tested drugs was at least 2 fold, and the calculated p-value for the expression change using the Student t-test was less than 0.01.

C2C12 cells [3] = settings: mouse
C2C12 cells [4] = assay: Genomic assay: gene expression analysis (Affymetrix Murine Genome MOE430) in C2C12 cells induced to differentiate
Method: as §1, §2

With `COS(C)(=O)=O` [Methanesulfonate methyl ester (MMS), Methanesulfonate methyl ester] the “C2C12 cell differentiation into myotubes after genotoxin exposure” value (C2C12 cells [1]) was “completely inhibited”, the “Fold change in expression: Ephx1, Epoxide hydrolase 1 (microsomal xenobiotic hydrolase)” value (C2C12 cells [2]) was 2.10 fold and the “Fold change in expression: Hgf, Hepatocyte growth factor (scatter factor)” value (C2C12 cells [2]) was 2.20 fold. The Lowest effective dose (C2C12 cells [3]) was 0.002 µg/mL, the “Fold change in expression: 0610013D04 Rik, RIKEN cDNA” value (C2C12 cells [4]) was 2.60 fold and the “Fold change in expression: 1600013K19 Rik, RIKEN cDNA” value (C2C12 cells [4]) was 0.62 fold. For the same compound, the “Fold change in expression: 2610005B21 Rik, RIKEN cDNA” value (C2C12 cells [4]) was 0.53 fold, the “Fold change in expression: 2610019I03 RIK, RIKEN cDNA” value (C2C12 cells [4]) was 0.43 fold and the “Fold change in expression: 2610509G12 Rik, RIKEN cDNA” value (C2C12 cells [4]) was 0.55 fold. The “Fold change in expression: 2810417H13 Rik, RIKEN cDNA” value (C2C12 cells [4]) was 0.48 fold, the “Fold change in expression: 4833427G06 Rik, RIKEN cDNA” value (C2C12 cells [4]) was 3.70 fold and the “Fold change in expression: 6530401L14 Rik, RIKEN cDNA” value (C2C12 cells [4]) was 0.39 fold. The “Fold change in expression: 9030617O03 Rik, RIKEN cDNA” value (C2C12 cells [4]) was 2.40 fold, the “Fold change in expression: Anxa8, Annexin A8” value (C2C12 cells [4]) was 2.50 fold and the “Fold change in expression: Asflb, ASF1 anti-silencing function 1 homolog B (Saccharomyces)” value (C2C12 cells [4]) was 0.47 fold. The “Fold change in expression: Birc5, Baculoviral IAP repeat-containing 5” value (C2C12 cells [4]) was 0.51 fold, the “Fold change in expression: Brca1, Breast cancer 1” value (C2C12 cells [4]) was 0.47 fold and the “Fold change in expression: Calmbp1, Calmodulin binding protein 1” value (C2C12 cells [4]) was 0.30 fold. The “Fold change in expression: Capn6, Calpain 6” value (C2C12 cells [4]) was 0.60 fold, the “Fold change in expression: Ccna2, Cyclin A2” value (C2C12 cells [4]) was 0.46 fold and the “Fold change in expression: Ccng1, Cyclin G1” value (C2C12 cells [4]) was 2.40 fold. The “Fold change in expression: Cilp, Cartilage intermediate layer pro” value (C2C12 cells [4]) was 0.57 fold, the “Fold change in expression: Cks2, CDC28 protein kinase regulatory subunit 2” value (C2C12 cells [4]) was 0.59 fold and the “Fold change in expression: D4Ertd421e, DNA segment, Chr 4, ERATO Doi 421, expressed” value (C2C12 cells [4]) was 0.44 fold. The “Fold change in expression: Dda3-pending, Differential display and activated by p53” value (C2C12 cells [4]) was 3.70 fold, the “Fold change in expression: E2f7, E2F transcription factor 7” value (C2C12 cells [4]) was 0.55 fold and the “Fold change in expression: E030024M05 Rik, RIKEN cDNA” value (C2C12 cells [4]) was 2.00 fold. The “Fold change in expression: E130315B21 Rik, RIKEN cDNA” value (C2C12 cells [4]) was 0.64 fold, the “Fold change in expression: Fbxo5, f-box only protein 31” value (C2C12 cells [4]) was 0.42 fold and the “Fold change in expression: Foxm1, Forkhead box M1” value (C2C12 cells [4]) was 0.41 fold. For the same compound, the “Fold change in expression: Gmnn, Geminin” value (C2C12 cells [4]) was 0.54 fold, the “Fold change in expression: Gnpi, Glucosamine-6-phosphate deaminase” value (C2C12 cells [4]) was 1.60 fold and the “Fold change in expression: Hmgb2, High mobility group box 2” value (C2C12 cells [4]) was 0.56 fold. The “Fold change in expression: Hmgb3, High mobility group box 3” value (C2C12 cells [4]) was 0.45 fold, the “Fold change in expression: Hmmr, Hyaluronan mediated motility receptor (RHAMM)” value (C2C12 cells [4]) was 0.36 fold and the “Fold change in expression: Kifl1, Kinesin 11” value (C2C12 cells [4]) was 0.43 fold. For the same compound, the “Fold change in expression: Lek1, Leucine, glutamic acid, lysine family 1 protein” value (C2C12 cells [4]) was 0.36 fold, the “Fold change in expression: Ly6e, Lymphocyte antigen 6 complex, locus E” value (C2C12 cells [4]) was 1.80 fold and the “Fold change in expression: M-phosph1, M-phase phosphoprotein” value (C2C12 cells [4]) was 0.27 fold. For the same compound, the “Fold change in expression: MGC:32192, Mus musculus cDNA clone MGC: 32192 IMAGE: 5006129” value (C2C12 cells [4]) was 0.46 fold, the “Fold change in expression: Mad2l1, MAD2 (mitotic arrest deficient, homolog)-like 1 (yeast)” value (C2C12 cells [4]) was 0.43 fold and the “Fold change in expression: Mad3, Max dimerization protein 3” value (C2C12 cells [4]) was 0.52 fold. The “Fold change in expression: Mcm3, Minichromosome maintenance deficient 3 (Saccharomyces)” value (C2C12 cells [4]) was 0.56 fold, the “Fold change in expression: Mcmd4, Minichromosome maintenance deficient 4 homolog” value (C2C12 cells [4]) was 0.57 fold and the “Fold change in expression: Mki67, Antigen identified by MAb Ki67” value (C2C12 cells [4]) was 0.31 fold. For the same compound, the “Fold change in expression: Mmhead, Mus musculus 15 day embryo head cDNA clone” value (C2C12 cells [4]) was 3.00 fold, the “Fold change in expression: Nos3, Nitric oxide synthase 3, endothelial cell” value (C2C12 cells [4]) was 1.90 fold and the “Fold change in expression: Np95, Nuclear protein 95” value (C2C12 cells [4]) was 0.41 fold. The “Fold change in expression: Nusap1, Nucleolar and spindle associated protein 1” value (C2C12 cells [4]) was 0.48 fold, the “Fold change in expression: Osbp16, Oxysterol binding protein-like 6” value (C2C12 cells [4]) was 2.20 fold and the “Fold change in expression: Pbk, PDZ binding kinase” value (C2C12 cells [4]) was 0.46 fold. The “Fold change in expression: Pcna, Proliferating cell nuclear antigen” value (C2C12 cells [4]) was 0.60 fold, the “Fold change in expression: Phex, Phosphate regulating neutral endopeptidase (X chromosome)” value (C2C12 cells [4]) was 2.20 fold and the “Fold change in expression: Plf, Proliferin” value (C2C12 cells [4]) was 2.60 fold. For the same compound, the “Fold change in expression: Pola1, DNA polymerase alpha 1, 180 kDa” value (C2C12 cells [4]) was 0.37 fold, the “Fold change in expression: Prc1, Protein regulator of cytokinesis 1” value (C2C12 cells [4]) was 0.44 fold and the “Fold change in expression: Prelp, Proline arginine-rich end leucine-rich repeat” value (C2C12 cells [4]) was 0.19 fold. The “Fold change in expression: Prim1, DNA primase, p49 subunit” value (C2C12 cells [4]) was 0.51 fold, the “Fold change in expression: Rad51ap1, RAD51-associated protein 1” value (C2C12 cells [4]) was 0.45 fold and the “Fold change in expression: Rbl1, Retinoblastoma-like 1 (p107)” value (C2C12 cells [4]) was 0.59 fold. For the same compound, the “Fold change in expression: Serpine1, Ser (or Cys) proteinase inhibitor, clade E, member 1” value (C2C12 cells [4]) was 0.58 fold, the “Fold change in expression: Sesn2, Sestrin 2” value (C2C12 cells [4]) was 5.30 fold and the “Fold change in expression: Shcbp1, Shc SH2-domain binding protein 1” value (C2C12 cells [4]) was 0.37 fold. The “Fold change in expression: Slc19a2, Solute carrier family 19 (thiamine transporter), member 2” value (C2C12 cells [4]) was 2.70 fold and 2.30 fold, the “Fold change in expression: Slc35a5, Solute carrier family 35, member A5” value (C2C12 cells [4]) was 2.60 fold and the “Fold change in expression: Smc2l1, SMC2 structural maintenance of chromosomes 2-like 1” value (C2C12 cells [4]) was 0.49 fold. For the same compound, the “Fold change in expression: Stk18, Serine/threonine kinase 18” value (C2C12 cells [4]) was 0.49 fold, the “Fold change in expression: Tacc3, Transforming, acidic coiled-coil containing protein 3” value (C2C12 cells [4]) was 0.48 fold and the “Fold change in expression: Tagln, Transgelin (smooth muscle 22 protein)” value (C2C12 cells [4]) was 0.47 fold. For the same compound, the “Fold change in expression: Tk1, Thymidine kinase 1” value (C2C12 cells [4]) was 0.46 fold, the “Fold change in expression: Top2a, Topoisomerase (DNA) II alpha” value (C2C12 cells [4]) was 0.37 fold and the “Fold change in expression: Trp53inp1, Transformation related protein, 53 inducible nuclear protein 1” value (C2C12 cells [4]) was 2.90 fold. The “Fold change in expression: Usp30, Ubiquitin specific protease 30” value (C2C12 cells [4]) was 3.70 fold and the “Fold change in expression: Wig1, Wild-type p53-induced gene 1” value (C2C12 cells [4]) was 2.40 fold.
